# According to ChEMBL document CHEMBL4043246, “Discovery of novel [1,2,4]triazolo[4,3-a]quinoxaline aminophenyl derivatives as BET inhibitors for cancer treatment” (Bioorg Med Chem Lett, 2017):
# Target: Bromodomain-containing protein 1 (Homo sapiens) (UniProt O95696)
# Test: Inhibition of human partial length BRD1 (E556 to A688 residues) expressed in bacterial expression system assessed as residual activity at 500 nM relative to control by BROMOscan assay
# Sequence of Bromodomain-containing protein 1 (Homo sapiens) (O95696 whole entry, the tested form may be a part): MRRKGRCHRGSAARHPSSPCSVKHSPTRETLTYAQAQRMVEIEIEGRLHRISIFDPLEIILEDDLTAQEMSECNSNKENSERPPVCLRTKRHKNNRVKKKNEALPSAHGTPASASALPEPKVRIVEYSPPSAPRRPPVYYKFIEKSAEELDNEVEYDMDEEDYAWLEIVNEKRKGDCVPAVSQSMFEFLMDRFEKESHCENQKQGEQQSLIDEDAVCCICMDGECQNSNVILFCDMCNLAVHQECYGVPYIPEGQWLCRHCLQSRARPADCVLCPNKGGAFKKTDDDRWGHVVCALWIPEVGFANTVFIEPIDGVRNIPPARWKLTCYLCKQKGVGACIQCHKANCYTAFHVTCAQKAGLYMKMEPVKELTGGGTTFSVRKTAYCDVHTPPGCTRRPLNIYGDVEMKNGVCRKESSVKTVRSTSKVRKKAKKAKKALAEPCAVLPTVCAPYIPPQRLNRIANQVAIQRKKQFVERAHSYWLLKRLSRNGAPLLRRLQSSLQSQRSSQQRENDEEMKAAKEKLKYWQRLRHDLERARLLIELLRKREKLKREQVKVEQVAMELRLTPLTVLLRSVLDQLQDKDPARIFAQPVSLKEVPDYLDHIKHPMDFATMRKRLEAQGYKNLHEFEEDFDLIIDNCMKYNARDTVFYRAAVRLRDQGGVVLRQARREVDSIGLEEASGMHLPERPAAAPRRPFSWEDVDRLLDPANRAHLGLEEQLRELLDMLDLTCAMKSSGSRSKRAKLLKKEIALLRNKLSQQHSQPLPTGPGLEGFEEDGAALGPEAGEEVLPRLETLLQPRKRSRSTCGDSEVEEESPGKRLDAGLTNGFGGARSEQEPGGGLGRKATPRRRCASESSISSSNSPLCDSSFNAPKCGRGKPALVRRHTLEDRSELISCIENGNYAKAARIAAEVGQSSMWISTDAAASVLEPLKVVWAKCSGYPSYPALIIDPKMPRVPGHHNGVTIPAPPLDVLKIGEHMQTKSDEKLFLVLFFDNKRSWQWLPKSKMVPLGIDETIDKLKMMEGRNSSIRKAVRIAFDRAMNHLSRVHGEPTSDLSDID
structure (smiles),measurement,value
Cc1nnc2c(Nc3cccc(CNC(=O)C(C)C)c3)nc3ccccc3n12,Activity,100%
